A word on the IC50: it is the concentration that gives 50% inhibition. As usually defined, the viability is a read-out of living cells in per cent, often relative to untreated cells.

Like-named read-outs stand apart in the source and are kept apart here. Bounds are passed on as bounds.

These results are taken from paper PMC8414367, “(E)-7-Ethylidene-lithocholic Acid (7-ELCA) Is a Potent Dual Farnesoid X Receptor (FXR) Antagonist and GPBAR1 Agonist Inhibiting FXR-Induced Gene Expression in Hepatocytes and Stimulating Glucagon-like Peptide-1 Secretion From Enteroendocrine Cells” (Frontiers in Pharmacology, 2021).

One data set addresses T1, human FXR (Homo sapiens, UniProt Q96RI1).
T1 sequence (Q96RI1 1-486): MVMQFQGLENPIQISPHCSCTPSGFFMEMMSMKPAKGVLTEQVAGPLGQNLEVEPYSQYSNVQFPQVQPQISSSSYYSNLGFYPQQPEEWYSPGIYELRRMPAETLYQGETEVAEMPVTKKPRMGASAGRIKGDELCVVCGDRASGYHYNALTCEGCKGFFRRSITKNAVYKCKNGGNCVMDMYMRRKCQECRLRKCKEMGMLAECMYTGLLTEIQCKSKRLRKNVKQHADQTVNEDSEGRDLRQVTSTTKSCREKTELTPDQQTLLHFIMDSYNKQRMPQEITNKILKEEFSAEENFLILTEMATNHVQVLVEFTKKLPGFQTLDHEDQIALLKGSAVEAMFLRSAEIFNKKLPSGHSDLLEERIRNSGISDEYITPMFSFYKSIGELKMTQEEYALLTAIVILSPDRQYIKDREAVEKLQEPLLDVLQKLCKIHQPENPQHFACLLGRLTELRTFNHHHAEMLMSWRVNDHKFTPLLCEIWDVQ
T1 sequence (P19793 1-462 partner): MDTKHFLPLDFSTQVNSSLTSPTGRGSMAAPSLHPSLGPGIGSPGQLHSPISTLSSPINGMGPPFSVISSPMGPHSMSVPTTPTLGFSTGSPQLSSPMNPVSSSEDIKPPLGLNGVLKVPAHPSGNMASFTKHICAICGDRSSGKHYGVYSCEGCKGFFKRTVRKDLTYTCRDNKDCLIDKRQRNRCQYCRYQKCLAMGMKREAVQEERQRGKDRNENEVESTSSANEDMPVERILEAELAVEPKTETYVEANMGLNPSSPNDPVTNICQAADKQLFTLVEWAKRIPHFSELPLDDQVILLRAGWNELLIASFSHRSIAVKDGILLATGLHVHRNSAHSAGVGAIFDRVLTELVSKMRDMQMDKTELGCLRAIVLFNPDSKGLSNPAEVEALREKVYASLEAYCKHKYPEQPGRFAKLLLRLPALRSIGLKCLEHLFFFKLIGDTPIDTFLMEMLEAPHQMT
The data set can be described thus: FXR luciferase reporter gene assay (FXRE-luc) in HepG2 cells, antagonistic mode. In kind it is cell-based. The settings on record: for remaining activity at 10 µM / remaining activity at 40 µM: HepG2; for remaining activity at 10 µM: tested compound 10 µM; for remaining activity at 40 µM: tested compound 40 µM, * = significant effect on cellular viability; for capacity to antagonize OCA-stimulated FXR activation (in words): with 1 µM OCA, Figure 3B. In general terms: A reporter such as luciferase makes a cellular process visible.

A further data set relates to AML12. The data set can be described thus: MTS viability assay. Type of data set: cell-based, murine. The settings on record: Mus musculus; AML12, 24 h, MTS; read-out: IC50 (µM), cell viability. The protocol:
(§1) The potential cytotoxicity of 7-alkylated chenodeoxycholic acid derivatives were assessed in different human (HepG2, HepaRG and Huh7) and murine (AML12) hepatocyte-derived cell lines. For this purpose, hepatic cells were treated at increasing concentration for 24h and analyzed by MTS viability assay.
(§2) Table S2. Cell viability was determined using the Cell Titer 96 Aqueous One Solution Cell Proliferation Assay (MTS assay) after treatment with test compounds for 24 h in four different hepatic cell lines. Vehicle (0.1% DMSO) and background (10% SDS; v/v, toxic control) controls of cell viability were set to be 100% and 0%, respectively.
For orientation: Tetrazolium dyes change colour on reduction, which living cells bring about.

The nature of data set [1]: MTS viability assay. The conditions noted are these: mouse, AML12 cells; AML12, 24 h, vehicle = 100%. In kind it is cell-based, murine. How it is done: as §1, §2
Another data set has as its system HepaRG. The data set can be described thus: MTS viability assay. In kind it is cell-based, human. The settings on record: Homo sapiens, 24 h, MTS, read-out: IC50 (µM), cell viability. How it is done:
as §1, §2

Another data set relates to Huh7. In words: MTS viability assay. In kind it is cell-based, human. The conditions noted are these: Homo sapiens, Huh-7; Huh7, 24 h, MTS; read-out: IC50 (µM), cell viability. The protocol: as §1, §2
The next data set has as its system HepG2. The data set can be described thus: MTS viability assay. Type of data set: cell-based, human. The conditions noted are these: Homo sapiens; HepG2, 24 h, MTS; read-out: IC50 (µM), cell viability. The protocol: as §1, §2
Data set [2] can be described thus: MTS viability assay. Type of data set: cell-based, human. The settings on record: human, vehicle = 100%. How it is done:
as §1, §2

In another data set the target is T2, GPBAR1 (Homo sapiens, UniProt Q8TDU6).
T2 construct: host or cells: HepG2
T2 sequence (Q8TDU6 1-330): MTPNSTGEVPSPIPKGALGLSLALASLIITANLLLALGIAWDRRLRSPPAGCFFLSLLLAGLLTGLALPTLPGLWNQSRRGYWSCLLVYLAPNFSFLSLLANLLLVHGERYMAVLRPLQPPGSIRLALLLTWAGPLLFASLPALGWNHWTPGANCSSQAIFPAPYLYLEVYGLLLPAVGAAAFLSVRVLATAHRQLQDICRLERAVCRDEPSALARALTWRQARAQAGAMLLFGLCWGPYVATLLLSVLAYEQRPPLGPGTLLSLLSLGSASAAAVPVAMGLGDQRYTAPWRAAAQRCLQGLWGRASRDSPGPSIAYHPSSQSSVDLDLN
The data set can be described thus: GPBAR1 CRE-luc luciferase reporter assay in HepG2 cells. Type of data set: cell-based. The conditions noted are these: 10 µM, 5 h, LCA 10 µM set as 100%. How it is done:
(C) Effects of LCA and 7-ELCA (both at 10 µM) on intracellular generation of cAMP in differentiated NCI-H716 cells after 30 min treatment. The increase in cAMP level (ΔcAMP) is presented as the difference between cAMP concertation in the treated sample after subtraction of the cAMP in the nontreated control sample. (D) Concentration-response curves for activation of GPBAR1 by LCA and 7-ELCA. EC50 values were calculated using nonlinear fitting of concentration-response curves. […] GLP-1 was normalized to protein concentration and GPBAR1 mRNA expression to GAPDH mRNA. Data are presented as a fold to control nontreated (NT) samples. Forskolin (FSK, 10 µM) was used as a GPBAR1-independent activator of cAMP production.

The mark [3] stands for this setting: GW4064 1 µM, read-out: relative response (%) to the model FXR ligand activation (set to be 100%), GW4064 1 µM.
Where [4] appears, read: CDCA 20 µM, read-out: relative response (%) to the model FXR ligand activation (set to be 100%), CDCA 20 µM.

`C[C@H](CCC(=O)O)[C@H]1CCC2C3C(CC[C@@]21C)[C@@]1(C)CC[C@@H](O)C[C@H]1C[C@@]3(C)O` (stereo partly drawn) [2b, 3α,7α-Dihydroxy-7β-methyl-5β-cholan-24-oic acid]: on human FXR (setting [3]), the remaining activity at 10 µM came out at 85 ± 7.7%. Besides, the results for the remaining activity at 40 µM at human FXR (setting [4]) and at human FXR (setting [3]) were 112 ± 1.6% and 64.9 ± 5%, respectively. Moreover, the half-inhibitory concentration (IC50) in the data set with AML12, in the data set on HepaRG, with Huh7 and in the data set with HepG2 was over 200 µM throughout. Further, the viability at 24 h, 10 µM in the data set “MTS viability assay [1]” is 108 ± 7.7%; in the data set “MTS viability assay [2]” (HepG2 cells, HepG2, 24 h), 99.7 ± 1.2%; in the data set “MTS viability assay [2]” (HepaRG cells), 119.5 ± 1%; in “MTS viability assay [2]” (Huh7 cells, Huh7, 24 h), 106 ± 5.8%.

Turning to `CC[C@@]1(O)C[C@@H]2C[C@H](O)CC[C@]2(C)C2CC[C@@]3(C)C(CC[C@@H]3[C@H](C)CCC(=O)O)C21` (stereo partly drawn) [2c, 3α,7α-Dihydroxy-7β-ethyl-5β-cholan-24-oic acid], the remaining activity at 10 µM at human FXR (setting [3]) is 89 ± 6%. The remaining activity at 40 µM on human FXR (setting [4]) turned out to be 67.1 ± 9.2%; at human FXR (setting [3]), 75.3 ± 2.5%. For the same molecule, the half-inhibitory concentration (IC50) in the data set with AML12, with HepaRG, in the data set on Huh7 and in the data set with HepG2 was over 200 µM each time. Further, the viability at 24 h, 10 µM in “MTS viability assay [1]” was 105 ± 2%; in “MTS viability assay [2]” (HepG2 cells, HepG2, 24 h) it was 100 ± 3.9%; in the data set “MTS viability assay [2]” (HepaRG cells) it was 117 ± 1.3%; in “MTS viability assay [2]” (Huh7 cells, Huh7, 24 h), 113 ± 4.8%.

As to `C=C[C@@]1(O)C[C@@H]2C[C@H](O)CC[C@]2(C)C2CC[C@@]3(C)C(CC[C@@H]3[C@H](C)CCC(=O)O)C21` (stereo partly drawn) [2d, 3α,7α-Dihydroxy-7β-vinyl-5β-cholan-24-oic acid], the remaining activity at 10 µM on human FXR (setting [3]) was 93.9 ± 6.6%. Also, the remaining activity at 40 µM was 80.2 ± 0.4% at human FXR (setting [4]) and 75.2 ± 4.6% on human FXR (setting [3]). Besides, the “capacity to antagonize OCA-stimulated FXR activation (in words)” value (“capacity” for short) at human FXR was “maintained”. Besides, the IC50 with AML12 was over 200 µM; with HepaRG, over 200 µM; in the data set with Huh7, over 100 µM; in the data set with HepG2, 168.8 ± 1 µM. Also, the viability at 24 h, 10 µM in “MTS viability assay [1]” was 106 ± 3.9%; in the data set “MTS viability assay [2]” (HepG2 cells, HepG2, 24 h) it was 95.9 ± 8.3%; in “MTS viability assay [2]” (HepaRG cells), 104 ± 2.4%; in “MTS viability assay [2]” (Huh7 cells, Huh7, 24 h), 117 ± 5.6%.

Consider `C#C[C@@]1(O)C[C@@H]2C[C@H](O)CC[C@]2(C)C2CC[C@@]3(C)C(CC[C@@H]3[C@H](C)CCC(=O)O)C21` (stereo partly drawn) [2e, 3α,7α-Dihydroxy-7β-ethynyl-5β-cholan-24-oic acid], for which the “CRE-luc activation compared to LCA (in words)” value at GPBAR1 is recorded as “weak or no ability to act as agonists of GPBAR1”. Further, the remaining activity at 10 µM at human FXR (setting [3]) was 80.3 ± 3.9%. The remaining activity at 40 µM was found to be 114.8 ± 0.7% at human FXR (setting [4]) and 64.8 ± 4.9% on human FXR (setting [3]). For the same molecule, the “capacity” value on human FXR was “only minor antagonist activity”. The half-maximal inhibitory concentration (IC50) with AML12, in the data set on HepaRG, in the data set with Huh7 and in the data set on HepG2 was over 200 µM in each case. Also, the viability at 24 h, 10 µM in the data set “MTS viability assay [1]” amounted to 97.5 ± 6.6%; in the data set “MTS viability assay [2]” (HepG2 cells, HepG2, 24 h), 96.5 ± 4.1%; in “MTS viability assay [2]” (HepaRG cells), 92.9 ± 6.5%; in the data set “MTS viability assay [2]” (Huh7 cells, Huh7, 24 h) it was 103 ± 4.4%.

As for `C=CC[C@@]1(O)C[C@@H]2C[C@H](O)CC[C@]2(C)C2CC[C@@]3(C)C(CC[C@@H]3[C@H](C)CCC(=O)O)C21` (stereo partly drawn) [2g, 3α,7α-Dihydroxy-7β-allyl-5β-cholan-24-oic acid], on GPBAR1, the “CRE-luc activation compared to LCA (in words)” value is given as “comparable activities to LCA”. For the same molecule, at human FXR (setting [3]), the remaining activity at 10 µM was 93.2 ± 0.6%. Further, the remaining activity at 40 µM on human FXR (setting [4]) stood at 107.2 ± 0.3%; at human FXR (setting [3]) it was 74.4 ± 4.4%. Further, on human FXR, the “capacity” value was “maintained”. The IC50 in the data set on AML12 is 161 µM; in the data set on HepaRG, over 200 µM; with Huh7 it was over 100 µM; in the data set with HepG2, 162 ± 2.1 µM. Moreover, the viability at 24 h, 10 µM in the data set “MTS viability assay [1]” worked out at 109 ± 3.2%; in the data set “MTS viability assay [2]” (HepG2 cells, HepG2, 24 h), 97.7 ± 9.1%; in the data set “MTS viability assay [2]” (HepaRG cells), 126 ± 4.5%; in “MTS viability assay [2]” (Huh7 cells, Huh7, 24 h), 93.5 ± 10%.

For the molecule `C=CCCC[C@@]1(O)C[C@@H]2C[C@H](O)CC[C@]2(C)C2CC[C@@]3(C)C(CC[C@@H]3[C@H](C)CCC(=O)O)C21` (stereo partly drawn) [2j, 3α,7α-Dihydroxy-7β-(pent-4-en)-5β-cholan-24-oic acid], at GPBAR1, the “CRE-luc activation compared to LCA (in words)” value is “weak or no ability to act as agonists of GPBAR1”. In addition, the remaining activity at 10 µM on human FXR (setting [3]) is 93.6 ± 2.8%. Also, on human FXR, the “capacity” value is on record as “maintained”. For the same molecule, the IC50 worked out at 75 µM with AML12, 76.5 µM in the data set on HepaRG, 34 ± 1.5 µM with Huh7 and 77.3 ± 1.2 µM with HepG2. Also, the viability at 24 h, 10 µM in the data set “MTS viability assay [1]” was 127 ± 7.1%; in “MTS viability assay [2]” (HepG2 cells, HepG2, 24 h), 87.8 ± 6.7%; in the data set “MTS viability assay [2]” (HepaRG cells), 93.1 ± 4.4%; in “MTS viability assay [2]” (Huh7 cells, Huh7, 24 h), 114 ± 7%.
